Reference: ChEMBL document CHEMBL1201862, “PubChem BioAssay data set” (2004)
“And” between values parts separate entries of the source, which are not always exact repeats. Equal entries are not always repeated.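 Test compounds were applied to cells in 96-well plates for 48 hours at 5 doses. At the GI50, growth is halved.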 The source made the active and inactive calls. Rule as the data show it: active = GI50 up to about 1.1 µM and inactive = higher. Positions of bridges follow the written chain, without caps; N, C: chain ends. Non-standard residues stand in square brackets, D forms with d. Residues, ends and D or L forms follow the SMILES beside them. *: point of attachment. PhAc = O=C(Cc1ccccc1)*

What was measured:
Experiment in all cases: growth of human tumour cells (NCI), 48 h
TK-10 = system: TK-10
NCI/ADR-RES = system: NCI/ADR-RES
MDA-MB-231 = system: MDA-MB-231
UO-31 = system: UO-31
MCF7 = system: MCF7
T47D = system: T47D
PC-3 = system: PC-3
UACC-257 = system: UACC-257
UACC-62 = system: UACC-62
SN12C = system: SN12C
SK-MEL-28 = system: SK-MEL-28
SF-295 = system: SF-295
OVCAR-3 = system: OVCAR-3
ACHN = system: ACHN
OVCAR-8 = system: OVCAR-8
M14 = system: M14
SNB-19 = system: SNB-19
SW-620 = system: SW-620
NCI-H522 = system: NCI-H522
SK-MEL-5 = system: SK-MEL-5

Measured: GI50

COc1cc(C2C3C=CC=C4CC=CC(=C43)C3CCC(=O)N32)cc(OC)c1OC (stereo not drawn)
inactive: TK-10 > 100 µM | NCI/ADR-RES 13.8 µM | MDA-MB-231 > 100 µM | UO-31 48.9 µM | MCF7 > 100 µM | T47D 36.1 µM | PC-3 59 µM | UACC-257 > 100 µM | UACC-62 30.8 µM | SN12C > 100 µM | SK-MEL-28 > 100 µM | SF-295 > 100 µM | OVCAR-3 > 100 µM | ACHN > 100 µM | OVCAR-8 > 100 µM | M14 > 100 µM | SNB-19 > 100 µM | SW-620 > 100 µM | NCI-H522 > 100 µM

Sc1nnc(COc2ccc(Cl)cc2)n1-c1ccccc1
inactive: TK-10 > 100 µM | NCI/ADR-RES > 100 µM | MDA-MB-231 > 100 µM | UO-31 61.2 µM | MCF7 > 100 µM | T47D 30.4 µM | PC-3 > 100 µM | UACC-257 > 100 µM | UACC-62 > 100 µM | SN12C > 100 µM | SK-MEL-28 > 100 µM | SF-295 > 100 µM | OVCAR-3 > 100 µM | ACHN > 100 µM | OVCAR-8 > 100 µM | M14 > 100 µM | SNB-19 > 100 µM | SW-620 > 100 µM | NCI-H522 5.4 µM

CN(C)c1ccc(/C=C2\C[C@H]3[C@@H]4CCc5cc(O)ccc5[C@H]4CC[C@]3(C)C2=O)cc1
inactive: TK-10 > 100 µM | NCI/ADR-RES > 100 µM | MDA-MB-231 16.5 µM | UO-31 > 100 µM | MCF7 > 100 µM | T47D > 100 µM | PC-3 > 100 µM | UACC-257 > 100 µM | UACC-62 17.1 µM | SK-MEL-28 > 100 µM | SF-295 32.6 µM | OVCAR-3 > 100 µM | ACHN 56.1 µM | SK-MEL-5 > 100 µM | OVCAR-8 95.1 µM | M14 > 100 µM | SNB-19 > 100 µM | SW-620 > 100 µM

C=C1c2c(n(S(=O)(=O)c3ccccc3)c3ccccc23)[C@@]2(C(=O)OC)CC3C=CC2N1C3
inactive: TK-10 > 100 µM | NCI/ADR-RES > 100 µM | MDA-MB-231 > 100 µM | MCF7 > 100 µM | T47D > 100 µM | PC-3 > 100 µM | UACC-257 > 100 µM | UACC-62 > 100 µM | SN12C > 100 µM | SK-MEL-28 > 100 µM | SF-295 > 100 µM | OVCAR-3 > 100 µM | ACHN > 100 µM | OVCAR-8 > 100 µM | M14 > 100 µM | SNB-19 > 100 µM | SW-620 > 100 µM | NCI-H522 > 100 µM

COc1cc2c3cc1Oc1c(OC)c(OC)cc4c1C(Cc1ccc(cc1)Oc1cc(ccc1O)CC3N(C)CC2)N(C)CC4 (stereo not drawn)
inactive: TK-10 12.1 µM and 22.8 µM | NCI/ADR-RES 19.3 µM | MDA-MB-231 10.1 µM | UO-31 4.9 µM and 8.28 µM | MCF7 6.44 µM | T47D 11.3 µM | PC-3 10.4 µM | UACC-62 8.89 µM and 15.1 µM | SN12C 21.7 µM and 15.1 µM | OVCAR-3 13.6 µM and 15.8 µM | M14 1.87 µM and 2 µM | SW-620 10.3 µM and 8.36 µM

COc1ccc2nc(-c3ccc(OC(=O)N(C)C)cc3)cn2c1
inactive: TK-10 > 100 µM | NCI/ADR-RES > 100 µM | MDA-MB-231 > 100 µM | MCF7 > 100 µM | T47D 71.4 µM | PC-3 > 100 µM | UACC-257 > 100 µM | UACC-62 > 100 µM | SN12C > 100 µM | SK-MEL-28 > 100 µM | SF-295 85.5 µM | OVCAR-3 > 100 µM | ACHN > 100 µM | SK-MEL-5 > 100 µM | OVCAR-8 > 100 µM | M14 75.7 µM | SNB-19 > 100 µM | SW-620 > 100 µM | NCI-H522 36 µM

C#CC(C)(C)Oc1cc(OC)c2c(=O)c3ccccc3n(C)c2c1
inactive: TK-10 23.6 µM | NCI/ADR-RES 13.8 µM | MDA-MB-231 15.2 µM | UO-31 3.87 µM | MCF7 20.1 µM | T47D 2.84 µM | PC-3 13.8 µM | UACC-257 10.9 µM | UACC-62 7.59 µM | SN12C 10 µM | SK-MEL-28 16.2 µM | SF-295 19.5 µM | ACHN 12.7 µM | SK-MEL-5 11.1 µM | OVCAR-8 15.4 µM | SNB-19 14.7 µM | SW-620 31.9 µM

CCn1c2ccccc2c2cc(NC(=O)c3c(C)[nH]c(=O)[nH]c3=S)ccc21
inactive: TK-10 53.6 µM | NCI/ADR-RES > 100 µM | MDA-MB-231 19.8 µM | UO-31 51.3 µM | MCF7 49.4 µM | T47D > 100 µM | PC-3 31.8 µM | UACC-257 70.3 µM | UACC-62 31.9 µM | SN12C 69 µM | SK-MEL-28 33.3 µM | SF-295 61.4 µM | OVCAR-3 35.7 µM | SK-MEL-5 42.1 µM | OVCAR-8 > 100 µM | M14 24.2 µM | SNB-19 49.1 µM | SW-620 31.7 µM

Oc1ccc2c(c1)-c1c(c3ccccc3n1CCN1CCOCC1)CC2
inactive: TK-10 28.6 µM | NCI/ADR-RES 32.7 µM | MDA-MB-231 > 100 µM | UO-31 33.9 µM | MCF7 37.2 µM | T47D 84.7 µM | PC-3 32.2 µM | UACC-257 27.9 µM | UACC-62 27.5 µM | SN12C > 100 µM | SF-295 48.3 µM | OVCAR-3 33.5 µM | ACHN 23.1 µM | SK-MEL-5 40.6 µM | OVCAR-8 33.2 µM | M14 27.2 µM | SNB-19 38.6 µM | SW-620 > 10 µM

C1CCC(OC2CSC2)OC1 (stereo not drawn)
inactive: TK-10 > 100 µM | NCI/ADR-RES > 100 µM | MDA-MB-231 > 100 µM | UO-31 > 100 µM | MCF7 > 100 µM | T47D > 100 µM | PC-3 > 100 µM | UACC-257 > 100 µM | SN12C > 100 µM | SK-MEL-28 > 100 µM | SF-295 > 100 µM | OVCAR-3 > 100 µM | ACHN > 100 µM | SK-MEL-5 > 100 µM | OVCAR-8 > 100 µM | M14 > 100 µM | SNB-19 > 100 µM | SW-620 > 100 µM | NCI-H522 > 100 µM

O=C(Cc1ccccc1)N[C@@H]1COC(=O)[C@@H]2CCCN2C(=O)[C@@H]2CCCN2C1=O (PhAc-[dS]-Pro-Pro; ester 1-C)
inactive: TK-10 > 100 µM | NCI/ADR-RES > 100 µM | MDA-MB-231 > 100 µM | MCF7 > 100 µM | T47D > 100 µM | PC-3 > 100 µM | UACC-257 > 100 µM | UACC-62 > 100 µM | SN12C > 100 µM | SK-MEL-28 > 100 µM | SF-295 > 100 µM | OVCAR-3 > 100 µM | ACHN > 100 µM | SK-MEL-5 > 100 µM | OVCAR-8 > 100 µM | M14 > 100 µM | SNB-19 > 100 µM | SW-620 > 100 µM

CCOC(=O)N(CC)c1c(C(F)(F)F)cc(-c2ccccc2)[nH]c1=O
inactive: TK-10 97.9 µM | NCI/ADR-RES 24.7 µM | MDA-MB-231 > 100 µM | UO-31 56.1 µM | MCF7 44 µM | T47D 32.7 µM | PC-3 46.5 µM | UACC-257 48.3 µM | UACC-62 66.2 µM | SN12C 48.6 µM | SK-MEL-28 70.6 µM | SF-295 33.4 µM | OVCAR-3 37.1 µM | ACHN 58.6 µM | SK-MEL-5 41.7 µM | OVCAR-8 49.4 µM | M14 66.4 µM | SNB-19 > 100 µM | SW-620 54.7 µM

COc1ccc(C2SCC(=O)N2c2ccc(-c3ccc(-n4c(-c5ccccc5)nc5ccccc5c4=O)cc3)cc2)cc1OC (stereo not drawn)
inactive: TK-10 25.2 µM | NCI/ADR-RES 61.2 µM | MDA-MB-231 25.8 µM | UO-31 44.2 µM | MCF7 27.7 µM | T47D 22.4 µM | PC-3 42 µM | UACC-257 61.5 µM | UACC-62 29.2 µM | SN12C > 100 µM | SK-MEL-28 57 µM | SF-295 16.8 µM | OVCAR-3 26.5 µM | OVCAR-8 27.5 µM | M14 52.7 µM | SNB-19 84.5 µM | SW-620 73.5 µM

CC1=C(C)Cc2c(O)ccc(O)c2C1
inactive: TK-10 20.7 µM | NCI/ADR-RES 36.5 µM | MDA-MB-231 18 µM | UO-31 16.9 µM | MCF7 19.2 µM | T47D 18.5 µM | PC-3 15.2 µM | UACC-257 18.2 µM | UACC-62 16.5 µM | SN12C 21.8 µM | SK-MEL-28 12 µM | SF-295 47.4 µM | OVCAR-3 20.4 µM | ACHN 17.4 µM | SK-MEL-5 14.6 µM | OVCAR-8 16.1 µM | M14 16.2 µM | SNB-19 > 100 µM | SW-620 18.3 µM

COc1cc2ccnc3c2c(c1OC)N(C)C=C3
inactive: TK-10 35.3 µM | NCI/ADR-RES 24.3 µM | MDA-MB-231 29.1 µM | UO-31 14.2 µM | MCF7 16.6 µM | T47D 32.3 µM | PC-3 31.9 µM | UACC-257 34.4 µM | UACC-62 26.4 µM | SN12C 30.4 µM | SK-MEL-28 32.7 µM | SF-295 20.2 µM | OVCAR-3 29.4 µM | ACHN 16.1 µM | OVCAR-8 26.5 µM | M14 26.3 µM | SNB-19 25.2 µM | SW-620 29.6 µM
